Assay results reported in patent publication US6297032A, “Recombinant cephalosporin C amidohydrolase in cephalosporin biosynthesis” (Glaxo Group Limited, priority 1994, dated 2001).
One block for each compound: values may come before it.

Legend:
[1] = tested on: cephalosporin C amidohydrolase; assay: Substrate comparison, assay response by HPLC, enzyme from NM522/pVS44 cells; format: biochemical, Pseudomonas vesicularis
Experimental: (§1) The enzyme reaction mix was derivatised as above a 20 μl sample applied in a mobile phase consisting of 35% acetonitrile, 0.1% trifluoroacetic acid in HPLC-grade water onto a 15 cm Hypersil ODS 5μ column at 32° C. with a flow rte of 1.5 ml/min. Detection by fluorescence spectroscopy was as above. In this system authentic 7ACA standard has a retention time of 6.7 minutes, with a minor degradation peak at
(a) Assay response is given as product yield standardised to the 7ACA produced from GL-7ACA under equivalen reaction conditions. For this comparison it is assumed that products have molar extinction coefficients equivalent to 7ACA, such that the response was calculated directly from product peak area on HPLC. The standard reaction used 100 μl enzyme prepared by the procedure of preparation of 2(d) from NM522/p/VS44 cells, with 10 mg/ml substrate in overnight reaction at 27° C.
(b) Assay response obtained using 10 μl of above enzyme extract, with 3 mg/ml substrate in 2 hour reaction at 27° C. The actual response was then extrapolated to equivalent conditions to those used with the more slowly hydrolysed substrates.

[2] = tested on: Immobilised amidohydrolase; assay: Immobilised amidohydrolase activity (pH stat, DMAB assay); format: biochemical, Pseudomonas vesicularis; details: for Activity μmole 7ACA/min/g dry weight immobilised enzyme / Activity μmole/min/g wet weight immobilised enzyme: 50 mg/ml substrate in water, 25° C., pH 8.0
Experimental: E. coli strain NM522/pVS 44 was grown on TSB medium supplemented with 10 μg/ml choramphenicol and solidified with 1.5% w/v agar. Growth was for 2-4 days at 27.5° C. Cell paste was recovered by scraping from the agar surface, resuspended and washed in lysis buff (10 mM MOPS pH 8.0; 1 mM DTT; 1 mM benzamidine). About 65 g cell paste was lysed in 350 ml ice cold buffer by sonication (650W output, power setting 4, 5 passes through a continuous flow head at 35 ml/min flow, sample chilled on ice). The lysate was clarified by centrifugation (15,000 rpm, 30 min) to yield 3120 mg soluble protein. This material was passed over a 300 ml column of pre-equlibrated DE52 cellulose. Fractions eluting between 100 ml-500 ml after loading contained amidohydrolase activity in a total of 398 mg protein. The protein was concentrated using a centrifugal membrance device (Centriprep 30 concentrator, Amicon).
The concentrated extract (300 mg protein, 12.54 ml) was adjusted to 100 mM phosphate buffer pH 8.0:1 mM DTT; 1 mM benzamidine, and mixed with 3.0 g (dry weight) oxirane-linked polyacrylic matrix (Eupergit C: Rohm Pharma GmbH, D-6100 Darmstadt Germany). Immobilisation, monitored by protein removal from the liquid phase, was complete by 116 hours. About 120 mg protein became covalently linked to the support. Excess protein was removed by washing in the phosphate buffer.
Immobilised amidohydrolase activity was monitored by allowing the enzyme catalysed reaction to occur using an automated control system set to detect and maintain the reaction pH at a set point (a pH stat system). A pH monitor was set such that a fall in pH from the set point triggered a peristaltic pump to allow regulated dosing of alkali titrant.
A reaction volume of 50 ml contained 50 mg/ml substrate (GL-7ACA or Ceph C) in water maintained at 25° C. The reaction mix was adjusted to pH 8.0 using 2M NaOH as titrant before addition of about 3 g dry weight (12 g wet weight) immobilised enzyme to initate the reaction. The suspension was stirred using an overhead paddle type stirrer. Reaction progress was monitored by titrant addition rate and sampling at intervals. The samples were assayed for 7ACA by the DMAB method as in preparation 1(a). By this method the following activities were measured. (Table 8.)

[3] = tested on: cephalosporin C amidohydrolase; assay: Enzyme activity assay, E. coli B1113 extract after DE52 cellulose; format: biochemical, Pseudomonas vesicularis; details: extract 50
Experimental: (§2) Substrate buffer consists of 50 mM sodium phosphate buffer pH 7.0 containing 13.5 mg/ml cloxacillin and GL-7CA (3 mg/ml) or cephalosporin C (10 mg/ml). Cell suspensions or semi-purifed enzyme samples were incubated in substrate buffer for up to 24 hours at 37° C. At a suitable time a 100 μl aliquot of fluram reagent was then added, mixed and the sample incubated at room temperture for 1 hour. Fluram reagent consists of fluroescamine (Sigma Chemical Co) at 1 mg/ml in dry acetone. The presence of 7ACA in the reaction mix was detected after derivatisation of the free primary amine group by using fluorescence spectroscopy at an excitation wave length of 378 nm and emission detection at 498 nm in a flow injection assay system with 10% acetone in water as carrier fluid.
E. coli B1113 was grown on TSB agar plates following the method of preparation 1(b). The confluent cell growth was processed for amidohydrolase recovery essentially following the procedure of preparation 1(d) to the cell-free extract stage.
Amidohydrolase activity was further purified by application of the cell-free extract to a DE52 cellulose column (Whatman Ltd, Maidstone, Kent ME14 2ME). The majority of proteins in the extract bind to the matrix and amidohydrolase activity is not retained. […]

[4] = tested on: cephalosporin C amidohydrolase; assay: Cephalosporin C amidohydrolase enzyme properties, kinetic; format: biochemical, Pseudomonas vesicularis B965
Experimental: as §2
Further purification of the amidohydrolase was undertaken using an FPLC system (Pharmacia LKB Biotechnology, S-751 82 Uppsala, Sweden) in order to define the properties of the enzyme.
Material recovered from the 30-60% saturation ammonium sulphate precipitate was resuspended in MOPS buffer (10 mM MOPS pH8.0, 1 mM benzamidine). The solution was clarified by brief centrifugation followed by filration through a 0.2 micron filter. A 5 ml aliquot of enzyme mixture was applied to an HR5/5 MonoQ column pre-equilibrated with MOPS buffer. Amidohydrolase activity was recovered in the eluate between 2-4 after loading. This fraction was adjusted to 30% saturation in ammonium sulphate and loaded to an HR10/30 phenylsuperose column. Elution of protein was achieved using a salt gradient regime varying from 30%-0% saturation in ammonium sulphate with a running buffer consisting of 100 mM sodium phosphate pH7.0, 1 mM DTT. Amidohydrolase activity was recovered at between 18.5%-15.0% saturation of ammonium sulphate under these conditions.

[5] = tested on: cephalosporin C amidohydrolase; assay: Enzyme activity assay, partially purified amidohydrolase recovered from B965; format: biochemical, Pseudomonas vesicularis B965
Experimental: as §2, with “Cell” for “Substrate buffer consists of 50 mM sodium phosphate buffer pH 7.0 containing 13.5 mg/ml cloxacillin and GL-7CA (3 mg/ml) or cephalosporin C (10 mg/ml). Cell”
B965 cells were cultured on TSB agar plates essentially by the method of preparation 1(b). The cells were harvested into enzyme buffer, washed and finally resuspended in 10 ml chilled enzyme buffer. Enzyme buffer is 100 mM sodium phosphate buffer (pH 7.0) containing 1 mM DTT and 1 mM benzamidine. The cells were lysed by sonication using a 650W output sonicator (model W-380, Heat System Ultrasonics Inc, 1938 New Highway, Farmingdale, N.Y. 11735, USA) on power settings 2-3, 50% cycle, for 12 , minutes . The extract was clarifed by centrifugation at 18,000 g for 15 minutes at 4° C. The supernatant was recovered, adjusted to 10 ml volume in enzyme buffer, then solid ammonium sulphate was added slowly with gentle mixing at 4° C. to 30% saturation. […]

[6] = tested on: cephalosporin C amidohydrolase; assay: Enzyme activity assay, B965 whole cells (7ACA production); format: biochemical, Pseudomonas vesicularis B965
Experimental: as §2, §1
In typical experiments using these conditions B965 cells sufficient to fill a 10 μl inoculating loop produced 320 μg/ml 7ACA in 18 hours incubation GL-7ACA as substrate. […]

[7] = tested on: cephalosporin C amidohydrolase; assay: Enzyme activity assay, NM522/pVS44 extract after DE52 cellulose; format: biochemical, Pseudomonas vesicularis; details: 10 μl extract; 50 mg/ml cephalosporin C; 3 hour incubation at 27° C.
Experimental: as §2
Cephalosporin C amidohydrolase enzyme activity was recovered from NM522/pVS44 cells using procedures of preparation 1(b) and 1(c) to the cell free extract stage followed by chromatography on DE52 cellulose as described above. In a typical assay using the method of preparation 1(c), a 10 μl extract produced 12 μg/ml 7ACA from 50 mg/ml cephalosporin C in a 3 hour incubation at 27° C. This represents approximately 30-fold improvement over the level of activity obtained using B1113 strain extract aat an equivalent stage of purification.

[8] = tested on: gram-negative microorganisms; details: against gram-negative microorganisms; cited from earlier work
[9] = 100 μl enzyme from NM522/pVS44 cells, 10 mg/ml substrate, overnight reaction at 27° C., standardised to 7ACA produced from GL-7ACA

Compound: N[C@H](CCCC(=O)N[C@@H]1C(=O)N2C(C(=O)O)=C(CO)CS[C@H]12)C(=O)O [deacetylcephalosporin C]
Assay response (% rate of 7ACA) [1, 9]: 9.8%

Compound: O=C(CCCC(NC(=O)c1ccccc1)C(=O)O)N[C@@H]1C(=O)N2C(C(=O)[O-])=C(C[n+]3ccccc3)CS[C@H]12 (some centres unmarked) [benzoylcephalosporin-3-pyridiniummethyl]
Assay response (% rate of 7ACA) [1, 9]: 3.5%

Compound: CC(=O)OCC1=C(C(=O)O)N2C(=O)[C@@H](NC(=O)CCCC(=O)O)[C@H]2SC1 [GL-7ACA, 7-β-(4-carboxybutanamido)-cephalosporanic acid]
Activity μmole 7ACA/min/g dry weight immobilised enzyme [2]: 4.7 μmole 7ACA/min/g dry weight im
Activity μmole/min/g wet weight immobilised enzyme [2]: 1.2 μmole/min/g wet weight immobil
conversion achieved ([2]; GL-7ACA as substrate, immobilised enzyme): 9.0%
7 ACA Produced ([3]; GL-7ACA 3 mg/ml, 3 hr): 102 µg/mL
Km ([4]; GL-7ACA substrate at 1.2-7.2 mM): 2000 to 4000 µM
7 ACA Produced ([5]; extract 10 μl, GL-7ACA 2 mg/ml, 4 hr): 22 µg/mL
Assay response (% rate of 7ACA) ([1]; 10 μl enzyme extract, 3 mg/ml substrate, 2 hour reaction at 27° C., extrapolated to equivalent conditions (reference = 100)): 100%
7 ACA Produced ([6]; B965 cells filling a 10 μl inoculating loop, GL-7ACA as substrate, 18 hours incubation): 320 µg/mL

Compound: CC(=O)OCC1=C(C(=O)O)N2C(=O)[C@@H](NC(=O)CCCC(NC(=O)c3ccccc3)C(=O)O)[C@H]2SC1 (some centres unmarked) [benzoylcephalosporin C]
Assay response (% rate of 7ACA) [1, 9]: 2.8%

Compound: CC(=O)OCC1=C(C(=O)O)N2C(=O)[C@@H](NC(=O)CCC[C@@H](N)C(=O)O)[C@H]2SC1 [Ceph C, cephalosporin C]
Activity μmole 7ACA/min/g dry weight immobilised enzyme [2]: 0.95 μmole 7ACA/min/g dry weight im
Activity μmole/min/g wet weight immobilised enzyme [2]: 0.24 μmole/min/g wet weight immobil
maximum conversion ([2]; cephalosporin C substrate, 22 hours, immobilised enzyme): 1.7%
7 ACA Produced ([3]; Ceph C 10 mg/ml, 4 hr): 4.5 µg/mL
Specific activity maximum ([4]; using Ceph C substrate): 0.141 μmol 7ACA/min/mg enzyme
7 ACA Produced [7]: 12 µg/mL
7 ACA Produced ([5]; extract 80 μl, Ceph C 50 mg/ml, 8 hr): 14.5 µg/mL
Assay response (% rate of 7ACA) [1, 9]: 8.0%
7 ACA Produced ([6]; double the volume of B965 cells, cephalosporin C as substrate, overnight incubation): 5 µg/mL
activity as an antibiotic [8]: some activity

Inhibitors (inhibitory concentration) [4]: > 6 % w/v
Compound: N.N.O=S(=O)(O)O [ammonium sulphate]

Compound: CC(=O)OCC1=C(C(=O)O)N2C(=O)[C@@H](NC(=O)CCC(=O)O)[C@H]2SC1 [succinyl-7ACA]
Assay response (% rate of 7ACA) [1, 9]: 0.8%
